Assay results published in BigSolDB 2.1.

CC(=O)Nc1ccc(OC(=O)c2ccccc2OC(C)=O)cc1
solubility (mole fraction)
Details	278.15 K	283.15 K	288.15 K	293.15 K	298.15 K	303.15 K	308.15 K	313.15 K	318.15 K
in 1,4-dioxane	–	–	–	0.00169	0.00204	0.0025	0.00298	0.0035	0.00427
in 2-butanone	0.0025	0.00267	0.00287	0.00308	0.00333	0.00361	0.00392	0.00429	0.00465
in DMF	0.0172	0.0182	0.0192	0.0203	0.0215	0.0228	0.0242	–	–
in NMP	0.0209	0.024	0.0272	0.0304	0.0341	0.0378	0.0417	0.0464	0.0512
in acetonitrile	0.000681	0.000855	0.00105	0.00134	0.00164	0.00199	0.00236	0.00283	0.00339
in ethanol	0.000158	0.00021	0.000265	0.000326	0.000403	0.000486	0.000589	0.000733	0.000907
in ethyl acetate	0.000392	0.000519	0.000651	0.000789	0.000983	0.00119	0.00141	0.00169	0.00198
in isopropanol	7.6e-05	0.000107	0.000139	0.000178	0.000217	0.000262	0.000323	0.000394	0.000493
in methanol	0.000143	0.000182	0.000228	0.000278	0.000337	0.000403	0.000485	0.000601	0.000745
in n-butanol	0.000179	0.000235	0.0003	0.000375	0.000459	0.000557	0.000683	0.000852	0.00104
in n-propanol	8.8e-05	0.000128	0.000173	0.000214	0.000264	0.000327	0.000402	0.000496	0.000647
in toluene	1.3e-05	1.8e-05	2.5e-05	3.4e-05	4.3e-05	5.5e-05	6.8e-05	8.6e-05	0.000108
